Literature values in US20100028432A1, “FORMULATIONS OF ACTIVE PRINCIPLES INCORPORATED IN SLNS SUITABLE FOR TRANSDERMAL ADMINISTRATION” (NANOVECTOR S.R.L., priority 2006, published 2010).

Tests used:
[1] = in vivo
[2] = administered orally
[3] = transdermal systems of U.S. Pat. No. 5,508,039 containing melatonin powder and an absorption enhancer; in vitro tests
[4] = intravenous bolus injection

elimination time [1] | bioavailability [2] | plasma clearance ([2]; marked first-pass hepatic metabolism) | half-life of melatonin [3] [h] | half-life [4] | Compound
about 33 minutes |  |  |  |  | CN1CCc2cccc3c2[C@H]1Cc1ccc(O)c(O)c1-3 [Apomorphine]
 | low and variable bioavailability | rapid plasma clearance | ≤ 2 | around 40 minutes | COc1ccc2[nH]cc(CCNC(C)=O)c2c1 [melatonin, N-acetyl-5-methoxytryptamine]
